Values after ≈ are worked out from the molar mass of the structure shown. Where two headings read alike, the source gives them in different places.
Key:
Format in all cases: physicochemical
[1] = Aqueous solubility, 24 hours equilibration in water at 25° C., HPLC, pH and XRPD of residue; conditions: for XRPD of solid residue: residue after 24 hours equilibration in water at 25° C.
Experimental: Briefly, quantitative high performance liquid chromatography (HPLC) was used to determine the aqueous solubility. X-ray powder diffraction spectrometry was also used to characterize the thermodynamic solubility of the mono-hydrochloride and di-hydrochloride salts of MN-029. After a 24 hours equilibration of each salt form in water at 25° C., the residual solid material was separated from the aqueous solution and the pH of the aqueous sample was measured. The XRPD spectrum of the solid residue obtained from the MN-029 di-hydrochloride vial indicated the solid material to be the mono-hydrochloride salt of MN-029. […] Table 4 illustrates the data from aqueous solubility studies of the mono-hydrochloride and di-hydrochloride salts of MN-029.
The suspension was equilibrated at 25° C. for 24 hours then pH was measured. The suspension was filtered and the filtrate was diluted by a factor of 101. Quantization by HPLC with a reference to a standard solution. Different volumes of the standard, diluted, and undiluted solution were injected and solubility was calculated by integration of the peak found at the same time as the principle peak in the standard solution.

[2] = Gravimetric Vapor Sorption (GVS) hygroscopicity; conditions: for Weight change: GVS
Excerpt: Moreover, neither the mono-hydrochloride salt or the di-hydrochloride salt of MN-029 show any significant change in phase as measured by XRPD analysis of samples subjected to GVS analysis (see FIG. 6).

[3] = Log P, Log Pion, Log D by potentiometric titration (Sirius GlpKa, octanol:water); conditions: octanol:ionic-strength adjusted water
Excerpt: Most drugs have an ideal log P value and any deviation from this idealized value results in reduced absorption, slow transport of drug to the site of action and consequently, a decrease in biological activity. Table 8, illustrates the predicted and measured values for partition coefficients of MN-029 di-hydrochloride. The data was collected by potentiometric titration using a Sirius GlpKa instrument using three ratios of octanol:ionic-strength adjusted water to generate Log P, Log Pion and Log D values and the raw data was analyzed using Refinement Pro Software V.1.0. The predicted value of Log P was obtained using ACD V. software and Syracuse KOWWIN V.1.67 softwares.

[4] = Solubility as a function of pH in buffers without and with 15% HPBCD; conditions: for solubility at 5 days: thermodynamic from solid, read-out: MN-029 Solubility
Experimental: Buffers were prepared to cover a pH range of 2 to 7. Approximately 5 to 10 milligrams of drug was weighed into an HPLC vial to which 1.00 mL of the appropriate buffer was added. The solutions were vortexed briefly and were then shaken for five days on an orbital shaker. The prolonged shaking was carried out because slow equilibration had been observed during the initial formulation studies with different salt forms of MN-029.
Buffers with 15% HPBCD were prepared from the previous buffers. One and a half grams of HPBCD was weighed into each of several 10 mL volumetric flasks. HPBCD was dissolved in and diluted to volume with the appropriate buffer. 15 to 20 milligrams of MN-029 di-hydrochloride was weighed out into an tared HPLC vial. To the di-hydrochloride salt was added 1.00 mL of each buffer and the solution was vortexed briefly to dissolve the salt. The solutions were placed on an orbital shaker for five days. Solubility results are shown in Table 10, and the pH solubility profile for the drug in the absence of HPBCD is shown in FIG. 8.

[5] = pKa, predicted (ACD) versus measured (Sirius GlpKa)
Excerpt: MN-029 has a primary, secondary and tertiary amino group. The pKa's of these amino groups, therefore, should play a role in aqueous solubility, stability and pharmacokinetics. Accordingly, the present inventor compared the predicted pKa's of the alanyl and ring nitrogen atoms to their measured pKa values and unexpectedly found a significant difference between the measured and predicted pKa values for the benzimidazole nitrogen atoms. Thus, for the acidic >N—H group of imidazole, there is approximately a 6-fold difference between the predicted and measured pKa values as shown in Scheme 3. For the more basic ring nitrogen (—N═), however, the difference between observe red and predicted pKa values is 30-fold. That is, the measured value of basicity for the unprotonated ring nitrogen is much lower than the predicted value.
Predicted pKa values were calculated using ACD pKa prediction software v. 9. Actual pKa values were collected on a Sirius GlpKa instrument with a D-PAS attachment. Measurements were made at 25° C. in aqueous solution by UV and in methanol water mixtures by potentiometry. The ionic-strength of the titration media was adjusted with 0.15 M aqueous KCl. The values found in methanol water mixtures were corrected to 0% co-solvent via a Yashuda-Shedlovsky extrapolation. The data were refined using Refinement Pro software v. 1.0. No difference in pKa between the tautomers of MN-029 di-hydrochloride were detected experimentally or theoretically.

[6] = Evaluation of other salt forms as active pharmaceutical ingredient; conditions: reasons including instability, hygroscopicity and deliquescence even at moderate humidity
Experimental: The advantageous nature of the physicochemical properties of the di-hydrochloride salt of MN-029 seems to be borne out, not just in comparison with the mono-hydrochloride salt but also with three other salts that were prepared to determine each salt's potential to be an active pharmaceutical ingredient. These other salt forms were the mesylate, malonate and sulfate salts of denibulin. Each was deemed unsuitable for use in pharmaceutical formulations because of one or more reasons, including instability, hygroscopicity and deliquescence even at moderate humidity.

[7] = water, 25° C., equilibration for 24 hours

Compound: COC(=O)Nc1nc2cc(Sc3ccc(NC(=O)[C@H](C)N)cc3)ccc2[nH]1.Cl [MN-029 mono-hydrochloride, reference compound]
- XRPD of solid residue ([1]; listed as A063866): No significant difference
- XRPD of solid residue ([1]; listed as MN-029*HCl): No significant
- Concentration of filtrate [1, 7]: 0.63 mg/ml of free base
- pH of saturated solution [1, 7]: 2.37
- Weight change ([2]; 0% RH to 40% RH): +1.04 % w/w
- Weight change ([2]; 40% RH to 90% RH, listed as A063866): Reversible uptake of +2.12% w/w
- Weight change ([2]; 40% RH to 90% RH, listed as MN029*HCl): +2.12 % w/w
- Weight change ([2]; 90% RH to 0% RH): −3.39 % w/w
- XRPD of residue after GVS ([2]; sample subjected to GVS): No significant difference
- Measured LogP [3]: 2.64
- Measured LogPion(cation) [3]: 0.93
- Measured LogD7.4 ([3]; pH 7.4): 2.10

Compound: COC(=O)Nc1nc2ccc(Sc3ccc(NC(=O)[C@H](C)N)cc3)cc2[nH]1 [MN-029, carbamic acid N-[6-[[4-[[(2S)-2-amino-1-oxopropyl]amino]phenyl]thio]-1H-benzimidazol-2-yl]-methyl ester]
- MN-029 Solubility ([4]; Without HPBCD, buffer pH 2.0, final pH 2.10, five days shaking): 6.16 mg/mL
- solubility at 5 days ([4]; aqueous buffer with 15% HPBCD, pH 2, aqueous with cosolvent or surfactant or cyclodextrin, With 15% HPBCD, buffer pH 2.0, final pH 2.03): > 20900 µg/mL
- solubility at 5 days ([4]; aqueous buffer with 15% HPBCD, pH 3, aqueous with cosolvent or surfactant or cyclodextrin, With 15% HPBCD, buffer pH 3.0, final pH 3.11): > 24400 µg/mL
- solubility at 5 days ([4]; aqueous buffer with 15% HPBCD, pH 4, aqueous with cosolvent or surfactant or cyclodextrin, With 15% HPBCD, buffer pH 4.0, final pH 3.98): > 21500 µg/mL
- solubility at 5 days ([4]; aqueous buffer with 15% HPBCD, pH 5, aqueous with cosolvent or surfactant or cyclodextrin, With 15% HPBCD, buffer pH 5.0, final pH 5.24): > 23000 µg/mL
- solubility at 5 days ([4]; aqueous buffer with 15% HPBCD, pH 6, aqueous with cosolvent or surfactant or cyclodextrin, With 15% HPBCD, buffer pH 6.0, final pH 6.27): > 24300 µg/mL
- solubility at 5 days ([4]; aqueous buffer with 15% HPBCD, pH 7, aqueous with cosolvent or surfactant or cyclodextrin, With 15% HPBCD, buffer pH 7.0, final pH 6.90): > 22700 µg/mL
- solubility at 5 days ([4]; aqueous buffer, pH 3, aqueous buffer, Without HPBCD, buffer pH 3.0, final pH 3.35): 290 µg/mL (≈ 752 µM)
- solubility at 5 days ([4]; aqueous buffer, pH 4, aqueous buffer, Without HPBCD, buffer pH 4.0, final pH 3.92): 560 µg/mL (≈ 1450 µM)
- solubility at 5 days ([4]; aqueous buffer, pH 5, aqueous buffer, Without HPBCD, buffer pH 5.0, final pH 4.93): 150 µg/mL (≈ 389 µM)
- solubility at 5 days ([4]; aqueous buffer, pH 6, aqueous buffer, Without HPBCD, buffer pH 6.0, final pH 6.24): 130 µg/mL (≈ 337 µM)
- solubility at 5 days ([4]; aqueous buffer, pH 7, aqueous buffer, Without HPBCD, buffer pH 7.0, final pH 6.96): 26 µg/mL (≈ 67.5 µM)
- difference between predicted and measured pKa values ([5]; acidic >N—H group of imidazole): ~6 fold
- difference between predicted and measured pKa values ([5]; alanyl amino group): no significant difference
- difference between observed and predicted pKa values ([5]; more basic ring nitrogen (—N═)): 30 fold

Compound: O=S(=O)(O)O [sulfate]
- suitability for use in pharmaceutical formulations [6]: unsuitable

Compound: malonate
- suitability for use in pharmaceutical formulations [6]: unsuitable
